# Results from patent publication US20100226987A1, “TARGETING CONJUGATES COMPRISING ACTIVE AGENTS ENCAPSULATED IN CYCLODEXTRIN-CONTAINING POLYMERS” (CAPSUTECH LTD., priority 2007, published 2010).
# System: human nasopharyngeal KB cancer cells, which overexpress the folate receptor (FR)
# Assay: In vitro binding of RhB-encapsulating conjugates to KB cells (fluorescence counting and fluorescence microscopy)
# Assay type: cell-based
# Conditions: control = mixture of non-encapsulated RhB, free CD derivative, PEG and FA, FIGS. 1A-1B
# Experimental: Cell culture. KB cells (ATCC CCL-17) were obtained from ATCC and grown on Minimum essential medium (Eagle) with 2 mM L-glutamine; 0.1 mM non-essential amino acids; 0.2 Earle's BSS adjusted to contain 1.5 g/l sodium bicarbonate; and 1.0 mM sodium pyruvate, 90%; heat inactivated fetal bovine serum, 10%. Cells were subcultured according to the ATCC recommended protocol. After 3 cycles of splitting at 85% confluence, 2,000 to 50,000 cells were seeded on transparent 96 well plate. Following 24 hours it was decided that optimal conditions would be seeding 35,000 cells per well for assay to be carried out in the following day. […]
# KB cancer cells were cultured as described in Materials and Methods, and seeded on both Black and transparent 96 well plates for fluorescence counting and fluorescent microscopy. […] The medium was then washed 3 times with PBS 1 X, and fluorescence associated with the cells in both plates was counted using Analyst HT (Ex 525 nm, Dc 560 nm, Em 595 nm). The net fluorescence was calculated by subtracting the averaged background fluorescence form the fluorescence of the conjugate-treated cells. The transparent plate was further analyzed by fluorescence microscopy.
substance,measurement,value
Di-CD-Glu-PEG3350-FA-RhB [Conjugate 55],fluorescence of treated cells higher relative to control,780%
